Reference: patent US11712438B2, “Phenyl derivatives as PGE2 receptor modulators” (IDORSIA PHARMACEUTICALS LTD, priority 2017, dated 2023)

Legend:
Assay in all cases: cell-based
[1] = biological target: PTGER2 (EP2) (Homo sapiens, UniProt P43116)
[2] = biological target: PTRGER4 (EP4) (Homo sapiens, UniProt P35408);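 further: assay plate preincubated 15 min at 37 °C, after which PGE2 was added at 20 nM final and incubation continued 120 min at 37 °C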
[3] = biological target: EP4 (Homo sapiens, UniProt P35408);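 further: inhibition of PGE2-evoked (6 nM) cAMP accumulation in BT549 breast cancer cells endogenously expressing EP4, cAMP read by HTRF competitive immunoassay after 30 min at room temperature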
Sequence of EP4 (P35408 whole entry): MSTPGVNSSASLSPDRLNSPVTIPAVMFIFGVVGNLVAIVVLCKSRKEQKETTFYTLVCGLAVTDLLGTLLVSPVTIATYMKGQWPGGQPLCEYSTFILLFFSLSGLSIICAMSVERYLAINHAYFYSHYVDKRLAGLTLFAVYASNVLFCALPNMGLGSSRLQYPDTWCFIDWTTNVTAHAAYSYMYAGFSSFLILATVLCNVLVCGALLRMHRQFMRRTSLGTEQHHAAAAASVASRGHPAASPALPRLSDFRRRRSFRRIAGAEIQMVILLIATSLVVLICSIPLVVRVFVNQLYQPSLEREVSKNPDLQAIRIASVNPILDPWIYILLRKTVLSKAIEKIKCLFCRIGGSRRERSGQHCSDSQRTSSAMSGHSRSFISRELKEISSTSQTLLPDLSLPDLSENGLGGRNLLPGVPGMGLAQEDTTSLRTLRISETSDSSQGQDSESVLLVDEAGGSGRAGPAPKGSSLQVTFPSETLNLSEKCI
Text: Human tumor cell lines expressing endogenously either EP4 or EP2 are used and cAMP accumulation in cells upon PGE2 stimulation is monitored.
As a detection method for cAMP the HTRF (homogeneous time resolved fluorescence) Cisbio kit (HTRF cAMP dynamic 2 kit 20′000 tests Cisbio Cat. #62AM4PEC) was used, which is based on a competitive immunoassay using a Cryptate-labeled anti-cAMP antibody and d2-labeled cAMP. Native cAMP produced by cells or unlabeled cAMP (for the standard curve) compete with exogenously added d2-labeled cAMP (acceptor) for binding to monoclonal anti-cAMP-Eu3+ Cryptate (donor). A FRET signal (Fluorescence Resonance Energy Transfer) is obtained only if the labeled anti-cAMP antibody binds the d2 labelled cAMP, thus the specific signal (i.e. energy transfer) is inversely proportional to the concentration of cAMP in the standard or sample.
The BT549 cells (NCI/No. 0507282) are detached from culture dishes with a cell dissociation buffer (Invitrogen, 13151-014), and collected in growing medium (GM: RPM11640 (Invitrogen 21875)/10% FCS, 1% Penicilin/streptomycin). Cells are counted washed and resuspended in assay buffer (AB; HBSS, 20 mM HEPES, 0.2% BSA; 2 mM IBMX). 4′000 cells in 5 μl of AB are seeded per well of a small volume 384 well plate (black with flat bottom, Greiner 784076).
Stock solutions of test compounds are made at a concentration of 10 mM in DMSO, and serially diluted in DMSO to concentrations required for inhibition dose response curves (tested concentration range 30 μM-0.4 nM; 30 μM-0.015 nM or 1 μM-0.01 nM).
PGE2 (Cayman 14010, stock solution: 6 μM in DMSO) is used as agonist at 6 nM final concentration, corresponding to EC80.
Two point five microliters of diluted compounds are transferred into the assay plate. Plate is pre-incubated 45 minutes at room temperature. Subsequently, 2.5 microliters of PGE2 (final conc. 6 nM) are transferred into the assay plate. Plate is incubated 30 minutes at room temperature.
For each compound concentration the percentage of cAMP compared to DMSO control value as average±STDEV (each concentration is measured in duplicate) is calculated.
When compounds were measured multiple times, mean values are given.

[4] = biological target: EP2 (Homo sapiens, UniProt P43116);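 further: SF295 glioblastoma cells with endogenous EP2 only, PGE2-stimulated cAMP accumulation read by HTRF competitive immunoassay, 45 min pre-incubation then 30 min at room temperature, IBMX in buffer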
Sequence of EP2 (P43116 whole entry): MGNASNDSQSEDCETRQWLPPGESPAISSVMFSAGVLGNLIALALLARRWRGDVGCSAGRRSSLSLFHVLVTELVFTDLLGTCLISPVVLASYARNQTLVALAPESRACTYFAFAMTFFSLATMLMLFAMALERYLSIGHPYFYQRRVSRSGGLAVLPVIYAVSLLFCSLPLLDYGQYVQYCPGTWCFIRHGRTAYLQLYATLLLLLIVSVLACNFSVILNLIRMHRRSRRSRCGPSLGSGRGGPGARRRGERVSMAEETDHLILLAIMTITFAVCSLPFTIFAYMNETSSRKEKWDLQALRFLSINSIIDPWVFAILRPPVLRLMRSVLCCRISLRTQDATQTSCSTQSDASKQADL

Sequence of PTRGER4 (EP4) (P35408 whole entry): as the sequence (P35408 whole entry) above
Sequence of PTGER2 (EP2) (P43116 whole entry): as the sequence (P43116 whole entry) above

IC50 [1]	IC50 [2]	IC50 [3]	IC50 [4]	Compound
23 nM	168 nM	97 nM	50 nM	CCOc1c(C(=O)O)sc(-c2cc(NCCc3c(F)cc(Br)cc3F)ncn2)c1Cl [Example 27, 5-{6-[2-(4-Bromo-2,6-difluoro-phenyl)-ethylamino]-pyrimidin-4-yl}-4-chloro-3-ethoxy-thiophene-2-carboxylic acid]
359 nM	169 nM	51 nM	131 nM	CCOc1cc(-c2cc(NCCc3cccc(OC)c3)ncn2)sc1C(=O)O [Example 59, 3-Ethoxy-5-{6-[2-(3-methoxy-phenyl)-ethylamino]-pyrimidin-4-yl}-thiophene-2-carboxylic acid]
74 nM	103 nM	46 nM	66 nM	CCOc1cc(-c2cc(NCCc3ccc(Cl)cc3)ncn2)sc1C(=O)O [Example 82, 5-{6-[2-(4-Chloro-phenyl)-ethylamino]-pyrimidin-4-yl}-3-ethoxy-thiophene-2-carboxylic acid]
